Laboratory results reported in US12661347B2 (Dr. Falk Pharma GmbH, priority 2020, dated 2026).
Where two headings read alike, the source gives them in different places.

Columns and labels:
[1] = Simulation of the gastrointestinal tract, transfer model (donor medium to FaSSIF acceptor medium); format: physicochemical
Method: The solubility of the dose as well as the dissolution velocity under physiological conditions are critical parameters for the oral availability at the target site.
The transfer model consists of a vessel with 125 ml donor medium and a vessel with 500 m acceptor medium. The donor medium is transferred by means of pump (Piston pump Sotax CP7) in the acceptor medium so that 625 ml liquid is present in the acceptor vessel at the end of the experiment. The transfer rate amounts 10 ml/min. The donor medium is an artificial gastric juice in a sober state, and contains 34.2 mM sodium chloride (NaCl) in 0.1 hydrogen chloride (HCl). The acceptor medium consists of artificial […] in a sober state (FaSSIF) and contains 3 mM sodium taurocholate, and […] lecithine in phosphate buffer with a pH-value of 6.5. The temperature of the acceptor medium is adjusted to 37.5° C.±0.5° C. For the simulation of the gastrointestine motility, the acceptor medium is stirred continuously with a stirring paddle (50 rpm). A calibrated stirring paddle apparatus 2 according to the conditions of the USP (Sotax AT7 Smart) as an acceptor vessel is used. In FIG. 5, a scheme of the apparatus is illustrated.
The capsule was added to the donor medium.

[2] = Saturation solubility in the pH-range 1 to 6.8 (HPLC/UV); format: physicochemical
[3] = Comparison of Cmax of the formulation (human) with the plain compound (animals), doses as human-equivalent-dose; format: in vivo, human; monkeys, pigs, rabbits, rats and mice; settings: formulation in human vs drug as suspension in animals
Method: Due to regulatory and ethical reasons pharmacokinetic data with the plain compound were only generated in animals but not in human subjects. The pharmacokinetic data of the plain compound were derived from several studies in monkeys, pigs, rabbits, rats and mice. In all studies the compound was administered orally after suspension in 0.5% (w/v) methylcellulose in water, pH 5±0.5. Blood samples were taken at various time points within 24 h after drug administration and quantified by means of a previously validated HPLC-MS/MS method. […] In order to compile the data from different species, doses were converted into human-equivalent-dose (HED) taking into account differences in the body surface area between species. The widely accepted species-specific conversion factors defined in the FDA guideline “Estimating the Maximum Safe Starting Dose in Initial Clinical Trials for Therapeutics in Adult Healthy Volunteers” (Issue date 2005) were used.

[4] = test system: adult patients with Celiac Disease (CeD); assay: 6-week treatment of adult Celiac Disease patients challenged with 3 g daily gluten, placebo-controlled; format: in vivo, human
Method: Patients, who were in clinical and histological remission at start of the study were challenged with 3 grams daily gluten intake and randomized to receive placebo or one of 3 doses of the compound of formula (I), i.e. 10 mg, 50 mg or 100 mg.
Each morning after at least 6 hours of fasting, patients took the study drug orally, followed by one biscuit containing 3 g of gluten 30 minutes later, before breakfast. Throughout the 6-week study, patients were required to continue their strict gluten free diet.
The primary endpoint of the study was, whether the compound of formula (I) could prevent gluten-induced change in intestinal mucosal morphology. Before start (baseline) and after end of the 6 weeks of treatment endoscopies were conducted by an experienced gastroenterologist. Four endoscopy forceps biopsy samples with one biopsy bite per pass were taken from the second and third part of the duodenum and preserved in a PAXgene fixative containers. Tissue slides of the biopsies were scanned as whole-slide images and the villous height (VH) and crypt depth (CrD) in the mucosal samples were measured. In addition, the density of CD3+ intra-epithelial lymphocytes (IELs), an indicator of inflammation, was counted. Symptoms of CeD the patients were recorded by patient-reported outcomes (PROs) and measured by the Celiac Symptom Index (CSI) (Ref1) and Celiac Disease Questionnaire (CDQ) (Ref2).

TG2 = target: T1, TG2 (Homo sapiens, UniProt P21980); assay: Correlation of human pharmacokinetic data with in vitro TG2 inhibition (TG2-mediated deamidation of gluten)
T1 sequence (P21980 1-687): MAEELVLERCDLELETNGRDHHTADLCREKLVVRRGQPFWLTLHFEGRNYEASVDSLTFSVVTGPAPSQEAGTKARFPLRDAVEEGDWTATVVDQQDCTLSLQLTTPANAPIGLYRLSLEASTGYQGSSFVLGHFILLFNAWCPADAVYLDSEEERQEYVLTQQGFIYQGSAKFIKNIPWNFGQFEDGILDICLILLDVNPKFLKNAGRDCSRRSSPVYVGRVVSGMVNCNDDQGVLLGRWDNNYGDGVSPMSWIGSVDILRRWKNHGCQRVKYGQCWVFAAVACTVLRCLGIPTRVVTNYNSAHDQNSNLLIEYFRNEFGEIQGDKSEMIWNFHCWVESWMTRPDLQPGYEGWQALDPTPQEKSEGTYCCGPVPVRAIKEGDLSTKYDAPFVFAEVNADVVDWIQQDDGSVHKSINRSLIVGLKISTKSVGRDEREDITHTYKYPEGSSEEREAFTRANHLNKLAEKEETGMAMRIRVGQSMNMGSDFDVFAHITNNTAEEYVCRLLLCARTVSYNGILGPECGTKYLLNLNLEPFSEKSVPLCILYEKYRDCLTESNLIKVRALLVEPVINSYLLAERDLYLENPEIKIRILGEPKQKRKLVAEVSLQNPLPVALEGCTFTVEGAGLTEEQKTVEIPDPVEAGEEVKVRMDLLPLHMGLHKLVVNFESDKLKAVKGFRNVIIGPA
From the text: For the estimation of the therapeutic effective human dose, the drug concentration determined in vivo is compared with the drug concentrations resulting in an inhibition of the enzyme activity of TG2 in vitro (FIG. 2). Thereby, the TG2-mediated deamidation of gluten serves as a marker reaction. […] The 90% inhibition at IC90 can be regarded as maximal pharmacodynamic effect.

[5] = target: T2, small intestinal tissue transglutaminase (TG2) (Mus musculus, UniProt P21981); settings: plain, unformulated compound, cited from earlier work
T2 construct: from tissue; host or cells: small intestine (jejunum) and colon of the treated animals
T2 sequence (P21981 1-686): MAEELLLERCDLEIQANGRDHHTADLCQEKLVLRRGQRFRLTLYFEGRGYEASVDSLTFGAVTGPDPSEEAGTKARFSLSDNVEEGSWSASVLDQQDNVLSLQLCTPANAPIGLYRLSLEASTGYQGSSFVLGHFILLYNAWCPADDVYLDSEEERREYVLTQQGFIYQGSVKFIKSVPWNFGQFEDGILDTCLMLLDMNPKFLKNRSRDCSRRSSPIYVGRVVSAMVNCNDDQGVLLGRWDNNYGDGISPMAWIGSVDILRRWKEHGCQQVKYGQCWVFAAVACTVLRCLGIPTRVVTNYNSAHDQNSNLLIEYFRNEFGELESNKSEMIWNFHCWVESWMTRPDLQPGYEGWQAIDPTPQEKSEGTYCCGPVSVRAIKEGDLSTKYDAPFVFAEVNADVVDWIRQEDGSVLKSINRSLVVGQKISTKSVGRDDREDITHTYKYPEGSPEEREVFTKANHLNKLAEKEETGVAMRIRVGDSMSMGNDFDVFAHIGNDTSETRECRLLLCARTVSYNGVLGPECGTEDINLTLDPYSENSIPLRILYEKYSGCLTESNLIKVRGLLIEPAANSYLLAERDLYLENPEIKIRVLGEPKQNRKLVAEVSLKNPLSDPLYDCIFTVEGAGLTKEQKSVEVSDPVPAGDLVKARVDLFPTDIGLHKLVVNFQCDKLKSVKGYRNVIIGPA

[6] = Pharmacokinetic after oral administration of the systemic formulation in healthy volunteers (plasma, HPLC-MS/MS); format: in vivo, human
Method: The pharmacokinetic of (S,E)-methyl-7-(1-(2-(2-ethylbutylamino)-2-oxoethyl)-2-oxo-1,2-dihydro-pyridin-3-ylamino)-6-(1-methyl-1H-imidazole-5-carboxamido)-7-oxohept-2-enoate (compound of formula (I)) was investigated in healthy volunteers. Cohorts of 18 subjects each were treated with an oral daily dose of 10, 20, 50 and 100 mg compound of formula (I), respectively over a time period of 7 days.
The determination of said compound in blood plasma was performed by means of a previously validated HPLC-MS/MS method.

[7] = Side effects in humans at doses of up to 500 mg; format: in vivo
Method: Moreover, side effects related to potential off-target actions were not observed in humans even at doses of up to 500 mg. As aforementioned, this is particularly surprising due to the fact that TG2 is ubiquitously expressed in almost all cell types and cell compartments, it is present on the cell surface and gets secreted to the extracellular matrix, and is present in various organs, and thus it could be envisioned that off-target effects would be most likely.

CCC(CC)CNC(=O)Cn1cccc(NC(=O)[C@H](CC/C=C/C(=O)OC)NC(=O)c2cncn2C)c1=O [compound of formula (I), (S,E)-methyl-7-(1-(2-(2-ethylbutylamino)-2-oxoethyl)-2-oxo-1,2-dihydro-pyridin-3-ylamino)-6-(1-methyl-1H-imidazole-5-carboxamido)-7-oxohept-2-enoate]
solubility ([1]; FaSSIF (acceptor medium), FaSSIF, phosphate buffer pH 6.5, read-out: solubility in the acceptor medium): 200 µg/mL | solubility ([1]; FaSSIF medium, pH 6.5, fassif, thermodynamic from solid, pH-value of 6.5, read-out: saturation solubility of the pure drug): 180 µg/mL | solubility ([1]; artificial gastric juice, sober state (donor medium), simulated gastric fluid, 34.2 mM NaCl in 0.1 HCl, read-out: solubility in the donor medium): 4400 µg/mL | saturation solubility at pH=6.8 (duodenum) compared with pH~1 [2]: much lower | drug concentration normalized to body weight versus animal studies with suspension [3]: remarkably higher | effect of gluten on VH:CrD (mucosal deterioration) ([4]; 10 mg dose, baseline to week 6): prevented mucosal deterioration to a lesser degree | CDQ scores, change from baseline to week 6 ([4]; 10 mg, 50 mg and 100 mg groups, increase = better quality of life): increased | effect of gluten on VH:CrD (villus height-to-crypt depth ratio) ([4]; daily dose 50 mg, baseline to week 6): almost completely prevented the deleterious effect of gluten on VH:CrD | effect of gluten on VH:CrD (villus height-to-crypt depth ratio) ([4]; daily dose 100 mg, baseline to week 6): almost completely prevented the deleterious effect of gluten on VH:CrD | gluten-induced symptoms and quality of life ([4]; hard gelatine capsule formulation of example 2): significantly improved | safety profile (frequency and severity of adverse events) ([4]; hard gelatine capsule formulation of example 2, 6 weeks): comparable to placebo | intestinal mucosal injury ([4]; hard gelatine capsule formulation of example 2, moderate dose of daily gluten): effectively prevented intestinal mucosal injury | drug level in vivo compared with in vitro TG2 inhibition (TG2; dose of 10 mg): half maximal inhibition (IC50) of TG2 is already achieved | drug level in vivo compared with in vitro TG2 inhibition (TG2; dose of 50 mg of the new developed formulation): exceeding the IC90 | activity of intestinal TG2 ([5]; TG2 activated by poly(I:C)): reduced the activity of intestinal TG2 to normal levels | intestinal inflammation [5]: subdued intestinal inflammation | safety of administration [5]: safe | increase of drug concentration with dose ([6]; dose range 10-100 mg, formulation): dose-proportionally | Tmax ([6]; human, plasma, oral daily dose 10, 20, 50, 100 mg for 7 days, hard gelatine capsule of example 2, read-out: tmax (maximum of plasma drug level after administration)): ~1 h | side effects related to potential off-target actions [7]: not observed

CCC(CC)CNC(=O)Cn1cccc(NC(=O)[C@H](CC/C=C/C(=O)OC)NC(=O)c2cncn2C)c1=O [(S,E)-methyl-7-(1-(2-(2-ethylbutylamino)-2-oxoethyl)-2-oxo-1,2-dihydro-pyridin-3-ylamino)-6-(1-methyl-1H-imidazole-5-carboxamido)-7-oxohept-2-enoate]
dose sufficient to achieve a therapeutic effective drug concentration (TG2; human): 20 to 50 mg
